# Values quoted from earlier work in paper PMC9262839 (Cancer Discovery, 2022).
# B1: amivantamab: EGFR and MET bispecific antibody (antibody, chains of the INN, looked up, V domains shown)
# VH: QVQLVESGGGVVQPGRSLRLSCAASGFTFSTYGMHWVRQAPGKGLEWVAVIWDDGSYKYYGDSVKGRFTISRDNSKNTLYLQMNSLRAEDTAVYYCARDGITMVRGVMKDYFDYWGQGTLVTVSS
# VL: AIQLTQSPSSLSASVGDRVTITCRASQDISSALVWYQQKPGKAPKLLIYDASSLESGVPSRFSGSESGTDFTLTISSLQPEDFATYYCQQFNSYPLTFGGGTKVEIK
# VH2: QVQLVQSGAEVKKPGASVKVSCETSGYTFTSYGISWVRQAPGHGLEWMGWISAYNGYTNYAQKLQGRVTMTTDTSTSTAYMELRSLRSDDTAVYYCARDLRGTNYFDYWGQGTLVTVSS
# VL2: DIQMTQSPSSVSASVGDRVTITCRASQGISNWLAWFQHKPGKAPKLLIYAASSLLSGVPSRFSGSGSGTDFTLTISSLQPEDFATYYCQQANSFPITFGQGTRLEIK
# Key:
# [1] = cited from earlier work
# NSCLC with EGFRexon20ins = details: cited from earlier work
Molecule,patients with ≥grade 3 diarrhea [1],patients with ≥grade 3 treatment-related adverse events [1],objective response rate (ORR) (NSCLC with EGFRexon20ins)
C=CC(=O)Nc1cc(Nc2ncc(C(=O)OC(C)C)c(-c3cn(C)c4ccccc34)n2)c(OC)cc1N(C)CCN(C)C [Mobocertinib],21%,around 40%,–
B1,–,–,around 40%
